We go through six compounds from US20230312562A1, “TETRAHYDRO-3H-PYRAZOLO QUINOLONE AND TETRAHYDRO-3H-PYRROLO[3,2-F]QUINOLINE -CONTAINING COMPOUNDS AND USES THEREOF” (Purdue Research Foundation, priority 2020, published 2023).

Molecules are shown by their SMILES. Marks after values point to notes of the source that are not given here.

A word on the inhibition: it is the drop in the measured response relative to a control, in per cent.

The test system of experiment [1] is MCF7. In words: NCI-60 sulforhodamine B assay, MCF7. Format: cell-based. The settings on record: MCF7, breast, 48 h; for GI50: Homo sapiens. Here is the method:
(§1) Compounds HSD1787, 22, 23 and 27 were sent to the National Cancer Institute (NCI), Bethesda, Maryland (Drug Evaluation Branch), to evaluate the effects of compounds on the NCI-60 cell panel. According to the NCI protocol, the compounds were evaluated at five concentrations (10-fold dilutions) with the highest concentration being 100 μM and the incubation period was 48 h. A sulforhodamine B assay was used to assay the effects of the compounds on the cancer cells. […] The most sensitive cell lines (total growth inhibition, TGI, could be achieved with concentrations less than 1 μM of some of the compounds) were MDA-MB-435 (melanoma), SF-539 (glioma), A498 (renal), MDA-MB-468 (breast), OVCAR-3 (ovarian), NCI-H522 (non-small cell lung cancer). On the other hand, UACC-257 and SK-MEL-28 (both melanoma), TK-10 (renal), OVCAR-4 (ovarian) and T-47D (breast) were resistant to the compounds as 10 μM could not cause total growth inhibition (Table 2). […] This is in line with current appreciation that tumor mutational burden and not necessarily the anatomical origin of the tumor determines treatment strategies or outcomes.
(§2) According to the National Cancer Institute, Bethesda, Maryland (the protocol of the Drug Evaluation Branch), the effects of compounds are measured as follows: Cell suspensions are diluted to a target cell density of 5000-40,000 cells per well (based on cell growth characteristics) in a 96-well microtiter plates. The test compounds were evaluated at five concentrations (10-fold dilutions) with the highest concentration being 100 μM. The incubation period was 48 h under 5% carbon dioxide atmosphere and 100% humidity. A sulforhodamine B assay was used to assay the cells. Optical densities of the wells were read by a plate reader the optical densities were processed into GI50 (the concentration that causes 50% growth inhibition).
(§3) The NCI renamed the IC50 value, the concentration of compound that causes 50% growth inhibition, as follows:
(§4) The control is the well not treated with test agent (https://dtp.cancer.gov/databases_tools/docs/compare/compare_methodology.htm).
Background: Sulforhodamine B stains cellular protein and so reports cell mass.

In experiment [2] the test system is NCI/ADR-RES. In words: NCI-60 sulforhodamine B assay, NCI/ADR-RES. Format: cell-based. Conditions: ovarian, 48 h; for GI50: Homo sapiens. As for the experimental part:
as §1, §2, §3, §4

Experiment [3] relates to T-47D. In words: NCI-60 sulforhodamine B assay, T-47D. The settings on record: Homo sapiens, T47D, breast, 48 h. It is filed as cell-based. As for the experimental part:
as §1, §2, §3, §4

Experiment [4] has as its system SF-295. In words: NCI-60 sulforhodamine B assay, SF-295. Format: cell-based. Conditions: SF-295, CNS, 48 h; for GI50: Homo sapiens. As for the experimental part: as §1, §2, §3, §4
The subject of experiment [5] is TK-10. In words: NCI-60 sulforhodamine B assay, TK-10. It is filed as cell-based. Conditions: Homo sapiens; TK-10, renal, 48 h. As for the experimental part: as §1, §2, §3, §4
Experiment [6] relates to NCI60 cell lines. In words: NCI-60 cell panel, summary statements. It is filed as cell-based. The settings on record: melanoma, renal, breast, ovarian and leukemia cancer cell lines; read-out: GI50 values as low as. As for the experimental part:
as §1, §2, §3, §4

Experiment [7] concerns Ovcar-8. In words: NCI-60 sulforhodamine B assay, Ovcar-8. It is filed as cell-based. Conditions: Homo sapiens; Ovcar-8, ovarian, 48 h. Here is the method:
as §1, §2, §3, §4

Experiment [8] relates to UACC-257. In words: NCI-60 sulforhodamine B assay, UACC-257. It is filed as cell-based. Conditions: Homo sapiens; UACC-257, melanoma, 48 h. Here is the method:
as §1, §2, §3, §4

In experiment [9] the test system is Ovcar-4. In words: NCI-60 sulforhodamine B assay, Ovcar-4. Format: cell-based. The settings on record: Homo sapiens; Ovcar-4, ovarian, 48 h. Here is the method: as §1, §2, §3, §4
Experiment [10] concerns SF-539. In words: NCI-60 sulforhodamine B assay, SF-539. It is filed as cell-based. Conditions: SF-539, CNS, 48 h; for GI50: Homo sapiens. As for the experimental part:
as §1, §2, §3, §4

Experiment [11] relates to SK-MEL-28. Put plainly: NCI-60 sulforhodamine B assay, SK-MEL-28. It is filed as cell-based. The settings on record: Homo sapiens; SK-MEL-28, melanoma, 48 h. Here is the method: as §1, §2, §3, §4
Experiment [12] has as its system NCI-H522. In words: NCI-60 sulforhodamine B assay, NCI-H522. The settings on record: NCI-H522, non-small cell lung, 48 h; for GI50: Homo sapiens. It is filed as cell-based. Here is the method:
as §1, §2, §3, §4

The subject of experiment [13] is K-562. Put plainly: NCI-60 sulforhodamine B assay, K-562. The settings on record: Homo sapiens, K562; K-562, leukemia, 48 h. Format: cell-based. Here is the method:
as §1, §2, §3, §4

The test system of experiment [14] is MDA-MB-468. In words: NCI-60 sulforhodamine B assay, MDA-MB-468. It is filed as cell-based. Conditions: MDA-MB-468, breast, 48 h; for GI50: Homo sapiens. As for the experimental part: as §1, §2, §3, §4
The subject of experiment [15] is A498. Put plainly: NCI-60 sulforhodamine B assay, A498. It is filed as cell-based. The settings on record: A498, renal, 48 h; for GI50: Homo sapiens. Here is the method: as §1, §2, §3, §4
In experiment [16] the test system is MDA-MB-231. Put plainly: Inhibition of MDA-MB-231 viability/growth at 1 μM, 72 h. Conditions: Homo sapiens, MDA-MB-231; 1 μM compound, 72 h incubation. Format: cell-based.
Experiment [17] deals with MDA-MB-435. In words: NCI-60 sulforhodamine B assay, MDA-MB-435. Format: cell-based. Conditions: MDA-MB-435, melanoma, 48 h; for GI50: Homo sapiens. As for the experimental part:
as §1, §2, §3, §4

Experiment [18] relates to Ovcar-3. Put plainly: NCI-60 sulforhodamine B assay, Ovcar-3. The settings on record: Ovcar-3, ovarian, 48 h; for GI50: Homo sapiens. It is filed as cell-based. As for the experimental part: as §1, §2, §3, §4
Experiment [19] concerns SR. In words: NCI-60 sulforhodamine B assay, SR. It is filed as cell-based. The settings on record: Homo sapiens, lymphoma, 48 h. Here is the method:
as §1, §2, §3, §4

Experiment [20] deals with tubulin. In words: Inhibition of tubulin polymerization. Format: biochemical. Conditions: at 10 μM; similar to inhibition by colchicine.

With `Nc1n[nH]c2ccc([C@@H]3Nc4c(F)cc5[nH]ncc5c4[C@H]4[C@@H]5CC[C@@H](C5)[C@H]43)cc12` (stereo in doubt) [Compound 22, 5-(5-fluoro-6,7,7a,8,9,10,11,11a-octahydro-3H-8,11-methanopyrazolo[4,3-a]phenanthridin-7-yl)-1H-indazol-3-amine], the GI50 in experiment [1] is 61.6 nM; in experiment [2], 198 nM; in experiment [3], more than 10000 nM; in experiment [4], 50 nM; in experiment [5], 10700 nM; in experiment [6], not below 30 nM. For the same compound, the GI50 in experiment [7] is 448 nM; in [8], 5010 nM; in [9], 3340 nM; in experiment [10], 167 nM; in [11], 1400 nM; in [12] it was 115 nM. Further, the GI50 in experiment [13] was 47.7 nM; in [14], 78.8 nM; in experiment [15], 72.2 nM; in [17] it was 34.8 nM; in experiment [18] it was 220 nM; in experiment [19] it was 87.7 nM. Besides, the “TGI (total growth inhibition)” value in experiment [2] amounted to 921 nM; in [10], 0.590 µM; in [12], 1.92 µM; in experiment [14], 0.468 µM; in experiment [15], 0.636 µM; in experiment [18], 806 nM. In addition, the inhibition at 1 µM in [16] turned out to be 79%.
`Nc1n[nH]c2cc(F)c([C@@H]3Nc4ccc5[nH]ncc5c4[C@H]4[C@@H]5CC[C@@H](C5)[C@H]43)cc12` (stereo in doubt) [Compound 27, 6-Fluoro-5-(6,7,7a,8,9,10,11,11a-octahydro-3H-8,11-methanopyrazolo[4,3-a]phenanthridin-7-yl)-1H-indazol-3-amine]: the GI50 was 137 nM in [1]; 177 nM in experiment [2]; more than 10000 nM in experiment [3]; 139 nM in experiment [4]; 2020 nM in [5]; not below 30 nM in experiment [6]. Also, the GI50 came to 194 nM in experiment [7]; 2700 nM in experiment [8]; 416 nM in experiment [9]; 114 nM in [10]; 352 nM in experiment [11]; 109 nM in experiment [12]. In addition, the GI50 was found to be 92.2 nM in experiment [13]; 133 nM in experiment [14]; 71.4 nM in experiment [15]; 94.3 nM in experiment [17]; 138 nM in experiment [18]; 59.8 nM in experiment [19]. For the same compound, the “TGI (total growth inhibition)” value in experiment [1] was 8440 nM; in [2], 1210 nM; in experiment [4], 5770 nM; in [10], 0.304^d μM; in experiment [12], 0.544^d μM; in experiment [14] it was 0.424^d μM. Further, the entries for the “TGI (total growth inhibition)” value in [15] and in [17] were 0.280^d μM and 0.283^d μM, respectively. Moreover, the inhibition at 1 µM in [16] is approximately 100%.
On to `Nc1n[nH]c2cc(F)c([C@@H]3Nc4c(F)cc5[nH]ncc5c4[C@H]4[C@@H]5CC[C@@H](C5)[C@H]43)cc12` (stereo in doubt) [Compound 23, 6-Fluoro-5-(5-fluoro-6,7,7a,8,9,10,11,11a-octahydro-3H-8,11-methanopyrazolo[4,3-a]phenanthridin-7-yl)-1H-indazol-3-amine], for which the GI50 is 131 nM in experiment [1]; 150 nM in experiment [2]; more than 10000 nM in experiment [3]; 91.5 nM in experiment [4]; 5720 nM in experiment [5]; not below 30 nM in experiment [6]. Also, the GI50 is 142 nM in experiment [7]; 5660 nM in [8]; 1170 nM in [9]; 85.2 nM in experiment [10]; 3680 nM in [11]; 105 nM in experiment [12]. Also, the GI50 in experiment [13] is 110 nM; in [14] it was 86.5 nM; in [15], 69 nM; in [17], 84.6 nM; in experiment [18], 103 nM; in experiment [19], 131 nM. The “TGI (total growth inhibition)” value in experiment [1] was 8330 nM; in [2] it was 5810 nM; in [4], 3990 nM; in experiment [10], 0.270 µM; in experiment [12], 6.60 µM; in experiment [15], 0.2 µM. The “TGI (total growth inhibition)” value in experiment [17] amounted to 0.231 µM; in experiment [18] it was 4100 nM.
`c1cc2cn[nH]c2cc1[C@@H]1Nc2ccc3[nH]ncc3c2[C@H]2C3CC[C@@H](C3)[C@@H]12` (stereo in doubt) [Compound 17, 7-(1H-Indazol-6-yl)-6,7,7a,8,9,10,11,11a-octahydro-3H-8,11-methanopyrazolo[4,3-a]phenanthridine] had an inhibition at 1 µM in [16] of 91%.
In the case of `Nc1n[nH]c2ccc([C@@H]3Nc4ccc5[nH]ncc5c4[C@H]4C5CC[C@@H](C5)[C@@H]34)cc12` (stereo in doubt) [HSD1787, 5-(6,7,7a,8,9,10,11,11a-Octahydro-3H-8,11-methanopyrazolo[4,3-a]phenanthridin-7-yl)-1H-indazol-3-amine], the GI50 is 375 nM in experiment [1]; 480 nM in experiment [2]; more than 10000 nM in [3]; 340 nM in experiment [4]; 3860 nM in experiment [5]; 479 nM in [7]. The GI50 in [8] is more than 10000 nM; in [9], 2140 nM; in experiment [10] it was 232 nM; in [11], 934 nM; in [12] it was 210 nM; in experiment [13] it was 264 nM. Further, the GI50 in experiment [14] came to 269 nM; in experiment [15] it was 179 nM; in [17] it was 124 nM; in experiment [18] it was 243 nM; in experiment [19], 233 nM. The “TGI (total growth inhibition)” value was more than 10000 nM in experiment [2]; 0.654 µM in experiment [10]; 0.868 µM in experiment [12]; 2.73 µM in experiment [14]; 0.646 µM in experiment [15]; 0.329 µM in [17]. Besides, the “TGI (total growth inhibition)” value in experiment [18] was found to be 634 nM. This compound came in with an inhibition at 1 µM in experiment [16] of 95%. Further, the “Inhibition of the polymerization of tubulin” value in experiment [20] is “inhibited the polymerization of tubulin”.
The compound `Cn1cc([C@@H]2Nc3ccc4[nH]ncc4c3[C@H]3C4CC[C@@H](C4)[C@@H]23)c(C2CC2)n1` (stereo in doubt) [Compound 13, 7-(3-Cyclopropyl-1-methyl-1H-pyrazol-4-yl)-6,7,7a,8,9,10,11,11a-octahydro-3H-8,11-methanopyrazolo[4,3-a]phenanthridine] yielded an inhibition at 1 µM in experiment [16] of 0%.
